Experimental data reported in patent publication US20100056615A1, “USE OF TRICYCLIC DITERPENES AND THEIR DERIVATIVES FOR THE TREATMENT, CO-TREATMENT OR PREVENTION OF INFLAMMATORY DISORDERS AND/OR JOINT DISORDERS” (priority 2006, published 2010).

Experiments:
Experiment in all cases: Gene expression in human chondrocyte cells (SW1353), quantitative real-time PCR
Format in all cases: cell-based
Conditions in all cases: 12.5 μM compound, SW1353 chondrocytes, IL-1β treated
[1] = tested on: Human collagen II
Method: (§1) The cells were treated with IL-1β, which is one of the natural mediators that induce cartilage breakdown and is detected in substantial amounts in osteoarthritic cartilage tissues and cells derived thereof. Treatment of cells with IL-1β triggers the expression of genes that are involved in catabolic events, such as MMPs.
(§2) Chondrocytes (SW1353; purchased from the […] [ATCC]) were grown in cell culture medium according to the instructions from ATCC. For experimental treatments, cells were seeded into 6-well plates and cultured for two days until they reached confluence. Total cellular RNA was extracted from cultured cells and reverse-transcribed as described by Richard et al. Mol. Nutr. […] Expression levels of distinct genes were determined by quantitative real-time PCR as described in Richard et al. Mol. Nutr.

[2] = tested on: Human MMP-1
Method: as §1, §2

[3] = tested on: Human MMP-13
Method: as §1, §2

[4] = tested on: Aggrecan
Method: as §1, §2

[5] = tested on: Human MMP-3
Method: as §1, with “MMPs. Also, treatment of the cells with IL-1β reduces the collagen expression levels (compared to untreated cells)” for “MMPs.”
Chondrocytes (SW1353; purchased from the […] [ATCC]) were grown in cell culture medium according to the instructions from ATCC. For experimental treatments, cells were seeded into 6-well plates and cultured for two days until they reached confluence. Total cellular RNA was extracted from cultured cells and reverse-transcribed as described by Richard et al. Mol. Nutr. Food Res. 49, 431-442, 2005. Expression levels of distinct genes were determined by quantitative real-time PCR as described in Richard et al. Mol. Nutr. Food Res. 49, 431-442, 2005.

[6] = tested on: Human collagen I
Method: as §1, §2

COc1c(C(C)C)cc2c(c1O)[C@@]1(C(=O)O)CCCC(C)(C)[C@@H]1CC2 [Carnosic acid-12-methyl ether (XII), Carnosic acid 12-methylether]
Human collagen II gene expression level relative to cells treated without the compound [1]: 139%
Human MMP-1 gene expression level relative to cells treated without the compound [2]: 94%
Human MMP-13 gene expression level relative to cells treated without the compound [3]: 60%
Aggrecan gene expression level relative to cells treated without the compound [4]: 123%
Human MMP-3 gene expression level relative to cells treated without the compound [5]: 69%

CC(C)c1cc2c(c(O)c1O)C1=C(CC2)C(C)(C)CCC1=O [Sageone (VII), Sageone]
Human MMP-1 gene expression level relative to cells treated without the compound [2]: 3%
Human MMP-13 gene expression level relative to cells treated without the compound [3]: 36%
Aggrecan gene expression level relative to cells treated without the compound [4]: 152%
Human collagen I gene expression level relative to cells treated without the compound [6]: 120%
Human MMP-3 gene expression level relative to cells treated without the compound [5]: 112%
